Assay: Odor threshold concentration (Log T / Log ODT) by gas chromatograph sniff port with panelists
Set-up: species or system human
Procedure: “High impact perfume raw materials” should be understood as perfume raw materials having a Log T<−4. The odor threshold concentration of a chemical compound is determined in part by its shape, polarity, partial charges and molecular mass. For convenience, the threshold concentration is presented as the common logarithm of the threshold concentration, i.e., Log [Threshold] (“Log T”).
The odor threshold concentration of a perfuming compound is determined by using a gas chromatograph (“GC”). Specifically, the gas chromatograph is calibrated to determine the exact volume of the perfume oil ingredient injected by the syringe, the precise split ratio, and the hydrocarbon response using a hydrocarbon standard of known concentration and chain-length distribution. The air flow rate is accurately measured and, assuming the duration of a human inhalation to last 12 seconds, the sampled volume is calculated. […] To determine the threshold concentration, solutions are delivered to the sniff port at the back-calculated concentration. A panelist sniffs the GC effluent and identifies the retention time when odor is noticed. The average across all panelists determines the odor threshold concentration of the perfuming compound. The determination of odor threshold is described in more detail in C.

[1] = ingredient of Perfume oil B (Table 3)
[2] = ingredient of Perfume oil C (Table 5)
[3] = ingredient of Perfume oil D (Table 7)
[4] = ingredient of Perfume oil A (Table 1)

C=CCCC(=O)C1=CCCC(C)(C)C1
Log ODT [1]: <−4
Log ODT [2]: <−4

CC12CCC(CC1)C(C)(C)O2
Log ODT [1]: >−4
Log ODT [2]: >−4
Log ODT [3]: >−4

COc1nccnc1CCCC(C)C
Log ODT [1]: <−4

CC1(C)CC=C(CCC=O)CC1
Log ODT [4]: >−4

CC(=O)/C=C/C1=C(C)CCCC1(C)C
Log ODT [4]: <−4

1-OXA-12-CYCLOHEXADECEN-2-ONE (A) + 1-OXA-13-CYCLOHEXADECEN-2-ONE (B)
Log ODT [2]: >−4

2-METHYLBUTYL SALICYLATE (A) + PENTYL SALICYLATE (B)
Log ODT [4]: >−4

3,5,6-TRIMETHYL-3-CYCLOHEXENE-1-CARBALDEHYDE (A) + 2,4,6-TRIMETHYL-3-CYCLOHEXENE-1-CARBALDEHYDE (B)
Log ODT [2]: >−4

3,7-DIMETHYL-2,6-NONADIENENITRILE (A) + 3,7-DIMETHYL-3,6-NONADIENENITRILE (B)
Log ODT [2]: >−4

3-(4-ETHYLPHENYL)-2,2-DIMETHYLPROPANAL (A) + 3-(2-ETHYLPHENYL)-2,2-DIMETHYLPROPANAL (B)
Log ODT [1]: >−4

10-UNDECENAL (A) + (9E)-9-UNDECENAL (B) + (9Z)-9-UNDECENAL (C)
Log ODT [1]: <−4
Log ODT [2]: <−4

C/C=C/C(=O)[C@@H]1[C@@H](C)C=CCC1(C)C (racemic)
Log ODT [4]: <−4
Log ODT [1]: <−4

CC(C)=CCCC(C)C=O (racemic)
Log ODT [4]: >−4
Log ODT [1]: >−4

C=CC(C)CCCC(C)(C)O (racemic)
Log ODT [4]: >−4

CC(C)CCCC(C)CCO (racemic)
Log ODT [1]: >−4

C=CC(C)(CCC=C(C)C)OC(C)=O (racemic) [(+−)-1,5-DIMETHYL-1-VINYL-4-HEXENYL ACETATE]
Log ODT [4]: >−4
Log ODT [2]: >−4

CC1=CCC(C(C)(C)S)CC1 (racemic) [(+−)-2-(4-METHYL-3-CYCLOHEXEN-1-YL)-2-PROPANETHIOL]
Log ODT [1]: <−4
Log ODT [2]: <−4

CCCCCCCCCC(C)C=O (racemic) [(+−)-2-METHYLUNDECANAL]
Log ODT [4]: <−4
Log ODT [1]: <−4
Log ODT [2]: <−4
Log ODT [3]: <−4

CC(C)c1cccc(C(C)CC=O)c1 (racemic) [(+−)-3-(3-ISOPROPYL-1-PHENYL)BUTANAL]
Log ODT [1]: <−4

CCCCCCCC1CCC(=O)O1 (racemic) [(+−)-5-HEPTYLDIHYDRO-2(3H)-FURANONE]
Log ODT [2]: <−4

CC/C=C(\C)C(O)CCCCC (racemic) [(+−)-(E)-4-METHYL-3-DECEN-5-OL]
Log ODT [4]: >−4
Log ODT [1]: >−4

CCOC(=O)C(C)CC (racemic) [(+−)-ETHYL 2-METHYLBUTANOATE]
Log ODT [4]: >−4

CCCCC[C@H]1C(=O)CC[C@@H]1CC(=O)OC (racemic) [METHYL 2-((1RS,2RS)-3-OXO-2-PENTYLCYCLOPENTYL)ACETATE]
Log ODT [4]: >−4
Log ODT [2]: >−4

CC1=CCC2C[C@@H]1C2(C)C (single isomer, unassigned; (-))
Log ODT [2]: >−4

c1ccc(Oc2ccccc2)cc1 [1,1′-OXYDIBENZENE]
Log ODT [4]: >−4

COc1ccc(C)cc1 [1-METHOXY-4-METHYLBENZENE]
Log ODT [4]: >−4

COc1ccc2ccccc2c1 [2-METHOXYNAPHTHALENE]
Log ODT [2]: <−4
Log ODT [3]: <−4

CC(=O)OCCc1ccccc1 [2-PHENYLETHYL ACETATE]
Log ODT [4]: >−4

CC1=CC2CC(C=O)C1CC2C(C)C (centres unmarked) [8-ISOPROPYL-6-METHYL-BICYCLO[2.2.2]OCT-5-ENE-2-CARBALDEHYDE]
Log ODT [1]: <−4
Log ODT [3]: <−4

CC(=O)OCCC(C)CCC=C(C)C (centres unmarked) [37-DIMETHYL-6-OCTENYL ACETATE]
Log ODT [2]: >−4

CC(=O)O[C@@H]1CC2CC[C@]1(C)C2(C)C [(1R,2R)-1,7,7-TRIMETHYL-BICYCLO[2.2.1]HEPT-2-YL ACETATE]
Log ODT [2]: >−4
Log ODT [3]: >−4

COCCc1ccccc1 [(2-METHOXYETHYL)BENZENE]
Log ODT [1]: >−4

CC/C=C\CCOC(C)=O [(Z)-3-HEXENYL ACETATE]
Log ODT [2]: >−4

CC/C=C\CCOC(=O)C(C)C [(Z)-3-HEXENYL ISOBUTYRATE]
Log ODT [2]: >−4

CC1(C)CCC[C@]2(C)[C@H]3CCO[C@]3(C)CC[C@@H]12 [(−)-(3AR,5AS,9AS,9BR)-3A,6,6,9A-TETRAMETHYLDODECAHYDRONAPHTHO[2,1-B]FURAN]
Log ODT [1]: <−4
Log ODT [3]: <−4

CCCCCCCCCC(C)=O [Capsule 2-UNDECANONE, 2-UNDECANONE]
Log ODT [1]: >−4

CCCCCCCCCC=O [DECANAL]
Log ODT [3]: >−4

CCCCCCOC(=O)c1ccccc1O [HEXYL 2-HYDROXYBENZOATE]
Log ODT [4]: >−4

CCCCCCOC(C)=O [HEXYL ACETATE]
Log ODT [4]: >−4

CCCCCCCC=O [OCTANAL]
Log ODT [3]: >−4

O=C1CCCCCCCCCCCCCCO1 [OXACYCLOHEXADECAN-2-ONE]
Log ODT [2]: >−4

(1RS,2RS)-2,4-DIMETHYL-3-CYCLOHEXENE-1-CARBALDEHYDE (A) + (1RS,2SR)-2,4-DIMETHYL-3-CYCLOHEXENE-1-CARBALDEHYDE (B)
Log ODT [4]: >−4
Log ODT [2]: >−4

(2RS,4SR)-4-METHYL-2-(2-METHYL-1-PROPEN-1-YL)TETRAHYDRO-2H-PYRAN (A) + (2RS,4RS)-4-METHYL-2-(2-METHYL-1-PROPEN-1-YL)TETRAHYDRO-2H-PYRAN (B)
Log ODT [4]: >−4
Log ODT [1]: >−4

(2Z)-1,1-DIETHOXY-3,7-DIMETHYL-2,6-OCTADIENE (A) + (2E)-1,1-DIETHOXY-3,7-DIMETHYL-2,6-OCTADIENE (B)
Log ODT [1]: >−4
Log ODT [3]: >−4

(+)-(3S)-3-[(1R)-4-METHYL-3-CYCLOHEXEN-1-YL]BUTANAL (A) + (+)-(3R)-3-[(1R)-4-METHYL-3-CYCLOHEXEN-1-YL]BUTANAL
Log ODT [3]: >−4

(+−)-4-METHYLENE-2-PHENYLTETRAHYDRO-2H-PYRAN (A) + (+−)-4-METHYL-6-PHENYL-3,6-DIHYDRO-2H-PYRAN (B) + (+−)-4-METHYL-2-PHENYL-3,6-DIHYDRO-2H-PYRAN (C)
Log ODT [1]: <−4
Log ODT [3]: <−4

(+−)-(3E)-3-METHYL-4-(2,6,6-TRIMETHYL-2-CYCLOHEXEN-1-YL)-3-BUTEN-2-ONE (A) + (+−)-(1E)-1-(2,6,6-TRIMETHYL-2-CYCLOHEXEN-1-YL)-1-PENTEN-3-ONE (B)
Log ODT [2]: <−4

.ALPHA.-DIHYDROTERPINEOL (A) + BETA.-DIHYDROTERPINEOL (B)
Log ODT [1]: >−4

TRICYCLO[5.2.1.0~2,6~]DEC-3-EN-8-YL ACETATE (A) + TRICYCLO[5.2.1.0~2,6~]DEC-4-EN-8-YL ACETATE (B)
Log ODT [4]: >−4
Log ODT [1]: >−4

Reference: US12486471B2, “Perfume formulation for delivery system” (FIRMENICH SA, priority 2019, dated 2025)
